Laboratory results from patent publication US9670147B2, “Antioxidant inflammation modulators: oleanolic acid derivatives with amino and other modifications at C-17” (REATA PHARMACEUTICALS, INC., priority 2008, dated 2017).

Tests used:
HO-1 = assay: Nrf2 target gene induction in MDA-MB-435 cells, qPCR: HO-1; type: cell-based, human; settings: 16 hours
Method: FIG. 43. Induction of HO-1. FIGS. 43A and 43B: MDA-MB-435 human melanoma cells were treated with vehicle (DMSO) or the indicated compounds and concentrations for 16 hours. HO-1 mRNA levels were quantified using qPCR and were normalized relative to a DMSO-treated sample run in parallel. Values are averages of duplicate wells. FIG. 43C: MDA-MB-435 cells were treated with vehicle (DMSO) or the indicated compounds at 400 nM for 16 hours. HO-1, TrxR1 and actin protein levels were assayed by immunoblotting. Actin served as a loading control.
(§1) FIGS. 44, 46 and 47—Induction of HO-1, TrxR1 and γ-GCS. FIGS. 44A-C, 46A-C, 47A-C: MDA-MB-435 human melanoma cells were treated with vehicle (DMSO) or the indicated compounds (400 nM) for 16 hours. HO-1, thioredoxin reductase-1 (TrxR1), and γ-glutamylcysteine synthetase (γ-GCS) mRNA levels were quantified using qPCR and were normalized relative to a DMSO-treated sample run in parallel. Values are averages of duplicate wells. FIGS. 44D, 46D, 47D: MDA-MB-435 cells were treated with vehicle (DMSO) or the indicated compounds at 400 nM for 16 hours. HO-1, TrxR1 and actin protein levels were assayed by immunoblotting.
(§2) FIG. 45. Induction of HO-1, TrxR1 and γ-GCS. FIGS. 45 A-C: MDA-MB-435 cells were treated with vehicle (DMSO) or the indicated compounds at 160 nM for 16 hours. HO-1, TrxR1, and γ-GCS mRNA levels were quantified by qPCR and were normalized relative to a DMSO-treated sample run in parallel. Values are averages of duplicate wells. FIGS. 44D, 46D, 47D: MDA-MB-435 cells were treated with vehicle (DMSO) or the indicated compounds at 160 nM for 16 hours. HO-1, TrxR1 and actin protein levels were assayed by immunoblotting.
(§3) MDA-MB-435 human melanoma cells were treated with vehicle (DMSO) or the indicated compounds and concentrations for 16 hours. HO-1, thioredoxin reductase-1 (TrxR1), γ-glutamylcysteine synthetase (γ-GCS), and ferritin heavy chain mRNA levels were quantified using qPCR and were normalized relative to a DMSO-treated sample run in parallel. Values are averages of duplicate wells. Primer sequences are as follows.

RAW264.7 macrophages = assay: Cell viability, WST-1 reagent; type: cell-based, mouse; settings: Mus musculus, 2 h pre-treatment, then 20 ng/ml IFNγ for 24 hours
Method: (§4) FIGS. 1-34. Inhibition of NO Production. RAW264.7 macrophages were pre-treated with DMSO or drugs at various concentrations (nM) for 2 hours, then treated with 20 ng/ml IFNγ for 24 hours. NO concentration in media was determined using the Griess reagent system; cell viability was determined using WST-1 reagent. FIGS. 49-52. Inhibition of NO Production. RAW264.7 macrophages were pre-treated with DMSO or drugs at various concentrations (nM) for 2 hours, then treated with 20 ng/ml IFNγ for 24 hours. NO concentration in media was determined using the Griess reagent system; cell viability was determined using WST-1 reagent. RAW264.7 macrophages were pre-treated with DMSO or drugs for 2 hours, then treated with recombinant mouse IFNγ (Sigma) for 24 hours. NO concentration in media was determined using the Griess reagent system (Promega). Cell viability was determined using WST-1 reagent (Roche).

iNOS [1] = assay: iNOS Western blot in RAW264.7 mouse macrophages; type: cell-based; settings: compounds at 300 nM for 2 hours, 24 hour induction by IFNγ, read-out: iNOS suppr. WB
Method: FIGS. 38-40. iNOS Western Blot in RAW264.7 mouse macrophages. Cells were pretreated by compounds at 300 nM for 2 hours, followed by 24 hour induction by IFNγ (20 ng/ml). […]

γ-GCS = assay: Nrf2 target gene induction in MDA-MB-435 cells, qPCR: γ-GCS; type: cell-based, human; settings: 160 nM, 16 hours
Method: as §1, §2, §3

[2] = system: IFNγ-induced NO production in RAW264.7 macrophages; assay: Suppression of IFNγ-induced NO production (Griess reagent); type: cell-based, mouse; settings: Mus musculus, 2 h pre-treatment, then 20 ng/ml IFNγ for 24 hours
Method: as §4

iNOS [3] = assay: Suppression of iNOS mRNA induction, qPCR; type: cell-based, mouse; settings: RAW264.7; 2 h pre-treatment, 10 ng/ml IFNγ for 2 hours
Method: (§5) FIG. 35. Suppression of iNOS mRNA induction. RAW264.7 mouse macrophages were pre-treated for 2 hours with compounds at the indicated concentrations and subsequently stimulated with 10 ng/ml IFNγ for an additional 2 hours. mRNA levels of iNOS were quantified by qPCR and are shown relative to the vehicle-treated IFNγ-stimulated sample which was normalized to a value of 1. Values are averages of duplicate PCR reactions, each with triplicate wells.
as §5, with “36.” for “35.”
as §5, with “37.” for “35.”
as §5, with “RAW264.7” for “FIG. 35. Suppression of iNOS mRNA induction. RAW264.7”, “macrophage cells” for “macrophages”

TrxR1 = assay: Nrf2 target gene induction in MDA-MB-435 cells, qPCR: TrxR1; type: cell-based, human; settings: 16 hours
Method: as §1, §2, §3

IC50 [2] [nM] | Structure (SMILES) | HO-1 induction (HO-1; 160 nM) | IC50 (RAW264.7 macrophages) [nM] | inhibition at 0.3 µM (iNOS [1]) [%] | γ-GCS induction (γ-GCS) | iNOS suppr. qPCR (iNOS [3]) [%] | TrxR1 induction (TrxR1; 160 nM) | HO-1 induction (HO-1; 400 nM) | TrxR1 induction (TrxR1; 400 nM)
2.8 | CC1(C)CC[C@]2(NS(=O)(=O)c3ccccc3)CC[C@]3(C)[C@H](C(=O)C=C4[C@@]5(C)C=C(C#N)C(=O)C(C)(C)[C@@H]5CC[C@]43C)[C@@H]2C1 [Compound 63192, N-((4aS,6aR,6bS,8aR,12aS,14aR,14bS)-11-cyano-2,2,6a,6b,9,9,12a-heptamethyl-10,14-dioxo-1,2,3,4,4a,5,6,6a,6b,7,8,8a,9,10,12a,14,14a,14b-octadecahydropicen-4a-yl)benzenesulfonamide] | 1% of induction observed for RTA 402 | 150 | > 90 | 9% of induction observed for RTA 402 | ~60 | 14% of induction observed for RTA 402 |  | 
2 | COC(=O)N[C@]12CCC(C)(C)C[C@H]1[C@H]1C(=O)C=C3[C@@]4(C)C=C(C#N)C(=O)C(C)(C)[C@@H]4CC[C@@]3(C)[C@]1(C)CC2 [Compound 63167, methyl-(4aS,6aR,6bS,8aR,12aS,14aR,14bS)-11-cyano-2,2,6a,6b,9,9,12a-heptamethyl-10,14-dioxo-1,2,3,4,4a,5,6,6a,6b,7,8,8a,9,10,12a,14,14a,14b-octadecahydropicen-4a-ylcarbamate] |  | 180 | ~90 |  | ~50 |  | 61% of induction observed for RTA 402 | 62% of induction observed for RTA 402
1.5 | CCS(=O)(=O)N[C@]12CCC(C)(C)C[C@H]1[C@H]1C(=O)C=C3[C@@]4(C)C=C(C#N)C(=O)C(C)(C)[C@@H]4CC[C@@]3(C)[C@]1(C)CC2 [Compound 63193, N-((4aS,6aR,6bS,8aR,12aS,14aR,14bS)-11-cyano-2,2,6a,6b,9,9,12a-heptamethyl-10,14-dioxo-1,2,3,4,4a,5,6,6a,6b,7,8,8a,9,10,12a,14,14a,14b-octadecahydropicen-4a-yl)ethanesulfonamide] | 6% of induction observed for RTA 402 | > 200 | > 90 | 55% of induction observed for RTA 402 | ~65 | 86% of induction observed for RTA 402 |  | 
3.6 | CC1(C)CC[C@]2(N)CC[C@]3(C)[C@H](C(=O)C=C4[C@@]5(C)C=C(C#N)C(=O)C(C)(C)[C@@H]5CC[C@]43C)[C@@H]2C1 [Compound 63169, (4aR,6aS,6bR,8aS,12aS,12bR,14bS)-8a-amino-4,4,6a,6b,11,11,14b-heptamethyl-3,13-dioxo-3,4,4a,5,6,6a,6b,7,8,8a,9,10,11,12,12a,12b,13,14b-octadecahydropicene-2-carbonitrile] | 2% of induction observed for RTA 402 | > 200 | ~90 | 73% of induction observed for RTA 402 | ~50 | 129% of induction observed for RTA 402 |  | 
2.9 | CC1(C)CC[C@]2(NS(=O)(=O)C3CC3)CC[C@]3(C)[C@H](C(=O)C=C4[C@@]5(C)C=C(C#N)C(=O)C(C)(C)[C@@H]5CC[C@]43C)[C@@H]2C1 [Compound 63243, N-((4aS,6aR,6bS,8aR,12aS,14aR,14bS)-11-cyano-2,2,6a,6b,9,9,12a-heptamethyl-10,14-dioxo-1,2,3,4,4a,5,6,6a,6b,7,8,8a,9,10,12a,14,14a,14b-octadecahydropicen-4a-yl)cyclopropanesulfonamide] | 25% of induction observed for RTA 402 | 150 | ~90 | 36% of induction observed for RTA 402 | 50 | 57% of induction observed for RTA 402 |  | 
2 | CC1(C)CC[C@]2(NS(C)(=O)=O)CC[C@]3(C)[C@H](C(=O)C=C4[C@@]5(C)C=C(C#N)C(=O)C(C)(C)[C@@H]5CC[C@]43C)[C@@H]2C1 [Compound 63175, N-((4aS,6aR,6bS,8aR,12aS,14aR,14bS)-11-cyano-2,2,6a,6b,9,9,12a-heptamethyl-10,14-dioxo-1,2,3,4,4a,5,6,6a,6b,7,8,8a,9,10,12a,14,14a,14b-octadecahydropicen-4a-yl)methanesulfonamide] | 15% of induction observed for RTA 402 | 200 | ~90 | 64% of induction observed for RTA 402 | ~65 | 86% of induction observed for RTA 402 | 10% of induction observed for RTA 402 | 48% of induction observed for RTA 402
91 | CC1(C)CC[C@]2(NC(=O)N3CCC(O)CC3)CC[C@]3(C)[C@H](C(=O)C=C4[C@@]5(C)C=C(C#N)C(=O)C(C)(C)[C@@H]5CC[C@]43C)[C@@H]2C1 [Compound 63185, N-((4aS,6aR,6bS,8aR,12aS,14aR,14bS)-11-cyano-2,2,6a,6b,9,9,12a-heptamethyl-10,14-dioxo-1,2,3,4,4a,5,6,6a,6b,7,8,8a,9,10,12a,14,14a,14b-octadecahydropicen-4a-yl)-4-hydroxypiperidine-1-carboxamide] | 1% of induction observed for RTA 402 | > 200 | 0 | 27% of induction observed for RTA 402 | 0 | 71% of induction observed for RTA 402 |  | 
4 | C=CC(=O)N[C@]12CCC(C)(C)C[C@H]1[C@H]1C(=O)C=C3[C@@]4(C)C=C(C#N)C(=O)C(C)(C)[C@@H]4CC[C@@]3(C)[C@]1(C)CC2 [Compound 63183, N-((4aS,6aR,6bS,8aR,12aS,14aR,14bS)-11-cyano-2,2,6a,6b,9,9,12a-heptamethyl-10,14-dioxo-1,2,3,4,4a,5,6,6a,6b,7,8,8a,9,10,12a,14,14a,14b-octadecahydropicen-4a-yl)acrylamide] | 28% of induction observed for RTA 402 | 150 | ~90 | 55% of induction observed for RTA 402 | 50 | 71% of induction observed for RTA 402 |  | 
